Reference: patent US11731965B2, “Tetrahydroprotoberberine compound, preparation method therefor and uses thereof, and pharmaceutical composition” (SHANGHAI INSTITUTE OF MATERIA MEDICA, CHINESE ACADEMY OF …, priority 2017, dated 2023)

Key:
[1] = target: T1, human recombinant D1 receptor (Homo sapiens, UniProt P21728); experiment: D1 antagonistic activity test (LANCE cAMP, antagonism of dopamine-induced cAMP production in HEK293 cells); type: cell-based; details: HEK293 cells expressing human recombinant D1 receptor; test concentration 0.1 nM to 10000 nM; read-out: D1 Antagonistic Activity (IC50, nmol/L)
T1 construct: expressed in transfected cells; host or cells: HEK293
T1 sequence (P21728 whole entry): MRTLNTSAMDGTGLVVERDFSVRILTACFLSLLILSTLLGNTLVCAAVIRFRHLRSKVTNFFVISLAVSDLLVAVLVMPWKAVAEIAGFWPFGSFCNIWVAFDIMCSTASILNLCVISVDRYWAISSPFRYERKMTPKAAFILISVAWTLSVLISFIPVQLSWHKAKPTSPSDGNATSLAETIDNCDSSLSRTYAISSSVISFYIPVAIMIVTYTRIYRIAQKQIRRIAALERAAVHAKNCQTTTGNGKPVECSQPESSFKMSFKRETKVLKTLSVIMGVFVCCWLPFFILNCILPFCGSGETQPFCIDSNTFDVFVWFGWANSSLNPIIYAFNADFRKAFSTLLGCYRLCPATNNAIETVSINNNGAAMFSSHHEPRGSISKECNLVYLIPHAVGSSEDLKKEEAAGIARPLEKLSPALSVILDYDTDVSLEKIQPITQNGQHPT
Description: • 1) D1 antagonistic activity test
The D1 antagonism of the compound was evaluated by testing the antagonistic action of the compounds against dopamine on the induction of cAMP production in HEK293 cells. The cAMP concentration test was performed according to the method described in the kit instructions. The test concentration of the compound was 0.1 nM to 10000 nM. SCH23390 was used as a positive control. The IC50 was calculated by Excelfit software.

[2] = test system: insomnia induced by injection with 4-Chlorophenylalanine (PCPA) in rats; experiment: Sedative and hypnotic effects, PCPA-induced insomnia model in rats treated with sodium pentobarbital; type: in vivo, Wistar rats; details: for sleep time: FIG. 2
Description: The sedative and hypnotic effects of Example 60 were evaluated using a model of insomnia induced by injection with 4-Chlorophenylalanine (PCPA) in rats.
Dosage and method of administration: PCPA was administered at a dose of 150 mg/kg. […] was administered by a single intraperitoneal injection at 72 hours before the experiment in all Wistar rats. The diazepam group (DI) was administered at a dose of 2 mg/kg and 4 mg/kg, a single intraperitoneal injection; the test drug group was administered at a dose of 1 mg/kg and 3 mg/kg, a single intragastric administration; sodium pentobarbital was administered at a dose of 25 mg/kg, a single intraperitoneal injection. The administration volume was 10 ml/kg. On the day of the test, the model group was given sodium pentobarbital 30 minutes after the same volume of physiological saline was given; the DI group was given sodium pentobarbital 30 minutes after DI was administered; the test drug group was given sodium pentobarbital 60 minutes after the drug was administered.lndex observation: After the administration of sodium pentobarbital, the rats' response was closely observed. The time from the administration to 1 minute after the righting reflex disappeared is the sleep latency. The time from 1 minute after the righting reflex disappeared to the point that the righting reflex returned is sleep time.

[3] = target: T2, human recombinant D2 receptor (Homo sapiens, UniProt P14416); experiment: D2 antagonistic activity test (LANCE cAMP, antagonism of dopamine inhibition of cAMP production in HEK293 cells); type: cell-based; details: HEK293 cells expressing human recombinant D2 receptor; test concentration 0.1 nM to 10000 nM; read-out: D2 Antagonistic Activity (IC50, nmol/L)
T2 construct: expressed in transfected cells; host or cells: HEK293
T2 sequence (P14416 whole entry): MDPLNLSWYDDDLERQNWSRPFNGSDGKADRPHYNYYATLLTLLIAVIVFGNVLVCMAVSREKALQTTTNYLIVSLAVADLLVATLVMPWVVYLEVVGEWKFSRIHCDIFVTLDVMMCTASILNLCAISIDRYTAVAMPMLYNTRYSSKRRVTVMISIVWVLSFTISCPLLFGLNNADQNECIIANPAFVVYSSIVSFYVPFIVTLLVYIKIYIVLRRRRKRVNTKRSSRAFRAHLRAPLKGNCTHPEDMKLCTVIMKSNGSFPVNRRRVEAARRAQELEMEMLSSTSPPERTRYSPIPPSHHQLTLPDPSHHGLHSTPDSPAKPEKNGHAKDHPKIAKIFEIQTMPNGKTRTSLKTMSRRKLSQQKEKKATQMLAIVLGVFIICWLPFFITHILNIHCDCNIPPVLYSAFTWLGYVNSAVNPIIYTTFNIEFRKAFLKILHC
Description: LANCE™ cAMP 384 Kit (PerkinElmer, USA) was used to test the antagonism of the compound against the D1 receptor using the HEK293 cells expressing human recombinant D1 receptor. The D1 antagonism of the compound was evaluated by testing the antagonistic action of the compounds against dopamine on the induction of cAMP production in HEK293 cells. The cAMP concentration test was performed according to the method described in the kit instructions. The test concentration of the compound was 0.1 nM to 10000 nM. SCH23390 was used as a positive control. The IC50 was calculated by Excelfit software. The test results of some compounds were shown in Table 1. • 2) D2 antagonistic activity test LANCE™ cAMP 384 Kit (PerkinElmer, USA) was used to test the antagonism of the compound against the D2 receptor using the HEK293 cells expressing human recombinant D2 receptor. The D2 antagonism of the compound was evaluated by testing the antagonistic action of the compounds against dopamine on the inhibition of cAMP production in HEK293 cells. The cAMP concentration test was performed according to the method described in the kit instructions. The test concentration of the compound was 0.1 nM to 10000 nM. Risperidone was used as a positive control. The IC50 was calculated by Excelfit software. The test results of some compounds were shown in Table 1 (ND means the test was not performed).

[4] = Metabolism of l-stepholidine (statement only, no method)
[5] = test system: PCP-induced high spontaneous activity in mice; experiment: PCP-induced high spontaneous activity test in mice; type: in vivo, Male ICR mice; details: oral, PCP-induced high spontaneous activity in mice
Description: PCP (phencylidine) was dissolved in physiological saline to prepare a 7 mg/kg solution. The test compound was formulated with a 0.5% CMC-Na solution to a solution with suitable concentration, ready-to-use. Male ICR mice were 18-22 g. Mice were randomly divided into a solvent control group, a model control group, a positive control group, and each test drug group during the test. There were 8 mice in each group. Mice in each group were given each test drug by gavage. 45 minutes after the test drug was administered, mice were injected with a PCP (7 mg/kg) solution intraperitoneally. The spontaneous, open field video analysis system was used to record the mouse movement trajectory within 45 min after administration of test drug or saline, and then the mouse movement trajectory within 75 min after PCP administration. Spontaneous, open field video analysis system was used to analyze the mouse's movement trajectory, and the total distance of the movement of the mice in each group was counted. The result was expressed as mean±SD. Results were analyzed by one-way analysis of variance.

Compound | IC50 [1] | sleep time ([2]; 1 mg/kg single intragastric administration, sodium pentobarbital 25 mg/kg ip 60 minutes later) | sleep latency ([2]; 3 mg/kg single intragastric administration, sodium pentobarbital 25 mg/kg ip 60 minutes later, FIG. 1, *P<0.05 vs model group) | sleep time ([2]; 3 mg/kg single intragastric administration, sodium pentobarbital 25 mg/kg ip 60 minutes later) | hypnotic effect (overall) ([2]; PCPA-induced insomnia rats, 1 and 3 mg/kg intragastric) | IC50 [3] | metabolism [4] | duration of effect / efficacy [5]
COc1cc2c(cc1NS(C)(=O)=O)[C@@H]1Cc3ccc(OC)c(OC)c3CN1CC2 [Example 60, (S)-2-methanesulfonylamino-3,9,10-trimethoxy-6,8,13,13a-tetrahydro-5H-dibenzo[a,g] quinolizine] | 525 nmol/L | significantly prolong | significantly reduce | prolong | good hypnotic effect | 6.2 nmol/L | – | –
COc1cc2c(cc1O)[C@@H]1Cc3ccc(O)c(OC)c3CN1CC2 [l-SPD, L-Stepholidine, reference compound] | 7.7 nmol/L | – | – | – | – | 37 nmol/L | fast metabolism | short duration of effect
